From US7109364B2, “Group of anti-cancer compounds with specific structure and their production method” (priority 2000, dated 2006)
≈ marks a conversion by molar mass, not a printed value. Where two headings read alike, the source gives them in different places.

What was measured:
[1] = test system: B16 mouse melanoma cell line; assay: In vitro anti-cancer efficacy, B16, SRB method, 48 hours; format: cell-based; settings: for IC50 / IC90: Mus musculus; for IC50: read-out: B16 IC50; for IC90: read-out: B16 IC90
Protocol: (§1) The above compounds were dissolved in DMSO at stock concentration of 10 mg/ml and stored at 4° C. Before each experiment they were diluted to desired concentration with serum-free RPMI 1640 medium
2. B16 mouse melanoma cell line: B16 cells were maintained under the same condition as above. 2×10^4 cells/well were plated on 48-well plate and left for 12 hours for attachment. Cells were then treated with the test compounds and solvent control for 48 hours. Numbers of live cells were determined by SRB method. Briefly, cells were fixed with 50 μl/well 15% TCA for 1 hour, and then washed three times with double-distilled water. After drying 50 μl/well 1% SRB dye was added and reacted for 10 minutes. Plate was washed with 1% acetic acid. 0.2 ml Tris buffer (pH 9.6) was added and OD510 was recorded.
(§2) Reagents and Methods: same as in Experiment 1.

[2] = test system: K562 human leukemia cell line; assay: In vitro anti-cancer efficacy, K562, trypan blue dye exclusion, 48 hours; format: cell-based; settings: for IC50 / IC90: Homo sapiens, K562; for IC50: read-out: K562 IC50; for IC90: read-out: K562 IC90
Protocol: as §1
1. K562 human leukemia cell line: K562 cells were maintained in RPMI 1640 medium with 5% fetal bovine serum at 37° C. under 5% CO2 atmosphere. 4×10^4 cells/well were plated on 96-well plate. After treatment with the test compounds and solvent control (DMSO) for 48 hours, numbers of live cells were counted by trypan blue dye exclusion.
as §2

[3] = test system: Mouse cervical carcinoma U14; assay: In vivo anti-cancer efficacy, solid tumor model; settings: for Tumor W.: ± SD
From the text: Mouse cervical carcinoma U14 model was used to compare in vivo anti-cancer efficacy of 15-methyl-2-hexadecenoic acid, 13-methyl-tetradecanoic acid and the chemotherapy drug cytoxan (CTX).
40 male ICR strain mice, weighing 19–22 g, were randomly divided into 4 groups of 10 each. U14 cervical carcinoma mass (about 2 mm^3 each) was transplanted subcutaneously into the right armpits of all animals following standard procedure. The test group was given 15-methyl-2-hexadecenoic acid and 13-methyl-tetradecanoic acid at 0.4 g/kg, respectively, intragastrically (i.g.) daily for 11 days. The positive control group was given a single dose of CTX i.g. (25 mg/kg) on day 1. Negative control group was given normal saline (N.S.) at 0.2 ml/10 g daily for 11 days. On the 12th day, all mice were sacrificed and the tumors were isolated and weighed. The tumor inhibition rate (TIR) was calculated and subject to t test.

[4] = test system: ICR strain mice; assay: Acute toxicity, gavage administration; format: in vivo, mouse (ICR strain); settings: 2.5 g/kg twice a day, 14 days monitoring
Protocol: The acute toxicity tests were assessed for two administration routes, through gavage and subcutaneous injection.
Thus, the acute toxicity test was conducted in twenty ICR strain mice, weighing 18–20 g. The Sample was given through gavage at dosage of 2.5 g/kg, twice a day. Continuous monitoring was made for 14 days.

[5] = test system: human breast carcinoma MCF7ras; format: in vivo; settings: for Body weight D1 / Body weight D23: MCF7ras nude mice; for Body weight D1: day 1 (baseline); for Body weight D1 / Tumor W.: X ± SD; for Body weight D23 / TIR (tumor inhibition rate, (C-T)/C percentage) / Tumor W.: day 23, test 400 mg/kg gavage daily, CTX 25 mg/kg
Protocol: Thirty female Balb/c-nu/nu athymic mice, 6 weeks old, weighing 18–22 g, were housed in specific pathogen free (SPF) condition throughout the course of the experiment.
Subcutaneous transplantation of human breast carcinoma MCF7ras was carried out under aseptic condition. Tumor mass was cut into fragments (approximately 0.18×0.18×0.20 mm in size), and injected s.c. into the right mammary fat pad of each animal with a trocar. The mice were randomized into control and test groups of ten mice each. The day after transplantation, the mice in the test group were given through gavage 13-methyl-2-tetradecenoic acid at 400 mg/kg daily. The mice in two control groups were administered with CTX at 25 mg/kg and N.S. at 0.2 ml/10 g. All animals were sacrificed on day 23. The body weights and tumor weights were measured. The tumor inhibition rates (TIR) were determined by comparing the mean tumor weight of the test groups (T) with that of the control group (C) and expressed as a (C-T)/C percentage, and were analyzed by Student's test for statistical significance.

[6] = test system: Serum Hemolysinogenesis; format: in vivo, mouse (ICR strain)
Protocol: 50 male ICR strain mice, weighing 20–23 g, were randomly divided into 5 groups of 10 each. The method of administration in each group was the same as above phagocytic function). However, on the 6th day after administration, 0.2 ml 3:5 (VN) sheep red blood cell (RBC) suspension was injected i.p. into each mouse. 4 days later (day 10), blood was drawn from all animals and serum was prepared and then diluted 600 times. 1 ml diluted serum was mixed with 0.5 ml 10% sheep RBC suspension. N.S. was used as blank control. All samples were incubated at 37° C. for 30 minutes, and centrifuged (2000 rev/min) for 5 minutes. The supernatant was collected for measurement of OD540 and HC50 was calculated.

[7] = test system: Phagocytic Function of Reticuloendothelial System; format: in vivo, mouse (ICR strain)
Protocol: 50 female ICR strain mice, weighing 19–24 g, were randomly divided into 5 groups of 10 each. One group was given N.S. at 20 ml/kg i.g. as a normal control. A positive control group was given CTX i.g. at 25 mg/kg on day 1 and 6. A third group was given N-(13-methyl-tetradecanoyl)-4amino-1,2-benzenediol (Sample) only at 400 mg/kg i. g. The remaining two groups were given both CTX (25 mg/kg on day 1 and 6) and Sample (100 mg/kg and 400 mg/kg, respectively). All treatments except CTX were administered daily for 9 days. 30 minutes after the last administration, 0.15 ml Yidege (1:10) was injected into the tail vein of each mouse. 1 minute and 5 minutes after, blood was drawn and 20 μl serum was mixed with 0.1% […]. OD680 was measured and the clearance index K=(1 gOD1–1 gOD2)/(t2−t1) was calculated.

[8] = test system: Delayed Hypersensitivity; assay: Delayed hypersensitivity (sheep RBC); format: in vivo, mouse (ICR strain)
Protocol: 50 female ICR strain mice, weighing 18–21 g, were randomly divided into 5 groups of 10 each. The method of administration in each group was the same as above phagocytic function). However, on the 5th day after administration, each mouse was injected with 50 μl 10% sheep RBC suspension through tail vein. 4 days later (day 9), each mouse was injected intradermally with 20 μl 10 sheep RBC suspension or normal saline into metatarus of the left or right hind limbs, respectively. The digital thickness of each mouse was measured 24 hours later, and the difference in thickness between left and right digits was subject to t test analysis.

[9] = format: in vivo, mouse (ICR strain); settings: single agent i.g.: Sample (N-(13-methyl-tetradecanoyl)-4-amino-1,2-benzenediol) 0.4 g/kg; CTX 25 mg/kg
From the text: The mice were sacrificed after delayed hypersensitivity test above and the thymus and […] were collected and weighed.

[10] = test system: HAC cells; format: in vivo; settings: for Body Weight after treatment / Extension Rate (of life span) / Survival Time: test 0.4 g/kg i.g. daily till death, 5-FU 25 mg/kg i.g. day 1, 3, 5
Protocol: 30 female ICR strain mice, weighing 18–21 g, were randomly divided into 3 groups of 10 each. 0.2 ml of HAC cell suspension (10^7 cells/ml) was injected intraperitoneally (i.p.) into all animals. The test group was given 2-(12-Methyl-tridecyl)-5-mercapto-1,3,4-thiadiazole at 0.4 g/kg i.g. daily till death. The positive control group was given 5-Flurouracil (5-Fu) i.g. at 25 mg/kg on day 1, 3, and 5. The negative control group was given N.S. at 20 ml/kg daily as in test groups. The length of survival of each group was recorded and rate of extension of life span was calculated and subject to t test.

[11] = Table 2, unit inferred, methods same as in Experiment 1
[12] = day 12, test compounds 0.4 g/kg i.g. daily 11 days, CTX 25 mg/kg i.g. single dose
[13] = single agent i.g.: Sample (N-(13-methyl-tetradecanoyl)-4-amino-1,2-benzenediol) 0.4 g/kg, CTX 25 mg/kg, X ± SD

15-Methyl-2-hexadecanoic acid [Compound 29]
B16 IC50 [1, 11]: 6.8 µg/mL | B16 IC90 [1, 11]: 10.5 µg/mL | K562 IC50 [2, 11]: 10.1 µg/mL | K562 IC90 [2, 11]: 17.7 µg/mL | TIR (tumor inhibition rate) [3, 12]: 81.0% | Tumor W. [3, 12]: 0.50 ± 0.29 g | Body W. D1 ([3]; mouse, in vivo): 20.6 ± 0.7 g | observation after gavage [4]: No major anomaly was observed | LD50 ([4]; mice): > 5000 mg/kg

CC(C)CCCCCCCCCC=CC(=O)O [13-methyl-2-tetradecenoic acid]
Body weight D1 [5]: 20.3 ± 0.5 g | Body weight D23 [5]: 24.4 ± 1.1 g | TIR (tumor inhibition rate, (C-T)/C percentage) [5]: 74.3% | Tumor W. [5]: 0.47 ± 0.31 g

CC(C)CCCCCCCCCCCC(=O)O [13-methyl-tetradecanoic acid]
TIR (tumor inhibition rate) [3, 12]: 64.6% | Tumor W. [3, 12]: 0.93 ± 0.32 g | Body W. D1 ([3]; mouse, in vivo): 20.7 ± 0.7 g

O=P1(N(CCCl)CCCl)NCCCO1 (stereo not drawn) [CTX, cytoxan, reference compound]
HC50 [6, 13]: 22.51 ± 4.30 | K (clearance index of carbon grain) ([7]; single agent i.g.: Sample (N-(13-methyl-tetradecanoyl)-4-amino-1,2-benzenediol) 400 mg/kg daily 9 days, CTX 25 mg/kg day 1 and 6, X ± SD): 0.0238 ± 0.0161 | Body weight D1 [5]: 20.4 ± 0.4 g | Body weight D23 [5]: 18.6 ± 0.2 g | TIR (tumor inhibition rate, (C-T)/C percentage) [5]: 76.5% | Tumor W. [5]: 0.43 ± 0.15 g | Body W. D1 ([3]; U14 mice, day 1 (baseline), X ± SD): 20.6 ± 0.5 g | Body W. D12 ([3]; U14 mice, day 12, test compounds 0.4 g/kg i.g. daily 11 days, CTX 25 mg/kg i.g. single dose): 22.6 ± 1.2 g | TIR (tumor inhibition rate) [3, 12]: 82.5% | Tumor W. [3, 12]: 0.46 ± 0.17 g | Difference in thickness between left and right palm [8, 13]: 1.25 ± 0.48 mm | Indices of pancreas [9]: 2.287 ± 1.023 mg/10 g avoirdupois | Indices of thymus [9]: 1.387 ± 0.701 mg/10 g avoirdupois

CC(C)CCCCCCCCCCCC(=O)Nc1ccc(O)c(O)c1 [Compound 1, N-(3,4-Dihydroxyphenyl)-13-methyl tetradecanamide]
effects on serum hemolysinogenesis in either normal or immune-compromised mouse ([6]; in words): no obvious effects | effect on the Clearance Index of Carbon grain in normal mouse ([7]; 400 mg/kg i.g., in words): no obvious effect | IC50 ([1]; Table 1, 48 hours): 5.12 µg/mL (≈ 14.6 µM) | IC90 ([1]; Table 1, 48 hours): 9.28 µg/mL (≈ 26.6 µM) | IC50 ([2]; Table 1, 48 hours): 4.98 µg/mL (≈ 14.2 µM) | IC90 ([2]; Table 1, 48 hours): 10.1 µg/mL (≈ 28.9 µM) | inhibitory effect to the delayed hypersensitivity of both normal and CTX-treated mice ([8]; in words): no inhibitory effect

O=c1[nH]cc(F)c(=O)[nH]1 [Compound 5-FU, 5-Flurouracil, reference compound]
Body Weight after treatment ([10]; HAC mice): 43.4 ± 12.8 g | Extension Rate (of life span) ([10]; HAC mice): 47.4% | Survival Time ([10]; HAC mice, X ± SD): 14.3 ± 1.5 days | Body Weight before treatment ([10]; mouse, in vivo): 19.5 ± 1.2 g

CC(C)CCCCCCCCCCCc1nnc(S)s1 [Compound 30, 2-(12-Methyl-tridecyl)-5-mercapto-1,3,4-thiadazole]
B16 IC50 ([1]; Table 1, 48 hours): 5.16 µg/mL | B16 IC90 ([1]; Table 1, 48 hours): 8.05 µg/mL | Body Weight before treatment ([10]; HAC mice, X ± SD): 19.6 ± 1.3 g | Body Weight after treatment ([10]; HAC mice): 46.5 ± 6.1 g | Extension Rate (of life span) ([10]; HAC mice): 72.2% | Survival Time ([10]; HAC mice, X ± SD): 16.7 ± 1.8 days | K562 IC50 ([2]; Table 1, 48 hours): 6.10 µg/mL | K562 IC90 ([2]; Table 1, 48 hours): 8.75 µg/mL

CC(C)(C)CCCCCCCCCCCC(=O)O [Compound 31, 13,13-Dimethyl-tetradecanoic acid]
IC50 ([1]; Table 1, 48 hours): 20.4 µg/mL (≈ 79.6 µM) | IC90 ([1]; Table 1, 48 hours): 35.6 µg/mL (≈ 139 µM) | melting point: 37 to 39 °C | IC50 ([2]; Table 1, 48 hours): 24.6 µg/mL (≈ 95.9 µM) | IC90 ([2]; Table 1, 48 hours): 37.5 µg/mL (≈ 146 µM)

(2,4,6-Trihydroxyphenyl)-12-methyl tridecanone [Compound 19]
B16 IC50 ([1]; Table 1, 48 hours): 4.93 µg/mL | B16 IC90 ([1]; Table 1, 48 hours): 6.11 µg/mL | K562 IC50 ([2]; Table 1, 48 hours): 5.13 µg/mL | K562 IC90 ([2]; Table 1, 48 hours): 6.80 µg/mL
